Measured values from patent US20100056519A1, “COMPOSITION AND METHOD FOR REDUCING PLATELET ACTIVATION AND FOR THE TREATMENT OF THROMBOTIC EVENTS” (priority 2008, published 2010).

Experiments:
platelets = assay: Platelet aggregation induced by 10 μM TRAP; type: cell-based, human; conditions: for Platelet Aggregation (%), TRAP 10 μM: Mean ± SD
Method: (§1) The methodology employed was conventional aggregation induced by 5 μM ADP, 1 μg/ml collagen, 10 μM TRAP, whole blood aggregation with 1 μg/ml collagen, Ultegra, and PFA-100 Analyzers, expression of 14 intact, and TRAP-stimulated major receptors by whole blood flow cytometry were utilized to assess platelet activity after preincubation with escalating concentrations of E5555 (20 ng/ml, 50 ng/ml, and 100 ng/ml). The experiments were performed in healthy volunteers, CAD patients treated with ASA, and CAD patients treated with ASA and clopidogrel combination (n=10, for each group).
(§2) An Informed Consent was obtained from all volunteers. Drug users were excluded from data analysis. The study was approved by Quorum Institutional Review Board. All subjects underwent blood sampling after at least 30 minutes of rest and two or more hours of fasting. Blood (28 ml) was drawn between 8 and 10 a.m. in order to avoid any diurnal influence and sampled from an antecubital vein using a 21-gauge butterfly needle containing 3.2% sodium citrate (1:9 volume) after having discarded the first 1.5 ml of free running blood. Four Vacutainer tubes (7.0 ml) were collected for a total of 28 ml of whole blood-citrate mixture from each study participant. Chronologically, blood samples were delivered to the core laboratory facility within 45 minutes after drawing. Then all tubes of blood-citrate mixture were pooled. One portion of pooled blood (5 ml) was kept as an internal control and pretreated with the vehicle. The remaining blood (23 ml) was used for the in vitro exposure to E5555 at concentrations of 20 ng/ml, 50 ng/ml, and 100 ng/ml. […] The platelet aggregation studies, Rapid Analyzers measures, and flow cytometry preparations were initiated within no more than 110 minutes following the blood draw, incubation with the drug, and preparation of the samples.
Platelet counts were determined in each PRP sample with a Coulter Counter ZM (Coulter Co., Hialeah, Fla.). Platelet numbers were adjusted to 3.50×10^8/ml for aggregation using homologous platelet-poor plasma. Platelet aggregation was stimulated with 5 μM ADP, 1 μg/ml collagen, or 10 μM TRAP. All agonists were obtained from Chronolog Corporation (Havertown, Pa.) and Sigma (St. Louis, Miss.). Platelet aggregation experiments were performed using a Chrono-Log Lumi-Aggregometer (model 560-Ca). Aggregation curves were recorded for 4 minutes and analyzed according to internationally established standards using Aggrolink® software. Platelet aggregability was expressed as the percentage of light transmittance change from baseline using platelet-poor plasma as a reference.

[1] = system: Thrombospondin-Receptor (CD36); assay: TRAP-stimulated whole blood flow cytometry, thrombospondin receptor; type: cell-based, human; conditions: Mean ± SD
Method: as §1, §2
Formation of platelet-leukocyte aggregates was assessed by dual labeling with pan-platelet marker (CD151), and then with CD14, the macrophage receptor for endotoxin lipopolysaccharides (PharMingen, and Coulter, San Diego, Calif., USA). The tubes were then covered with aluminum foil and incubated at 37° C. for 40 minutes with gentle rotation. After incubation, samples were immediately analyzed on a Becton Dickinson FACScan flow cytometer. The instrument was set up to measure forward light scatter, and FITC fluorescence. All parameters were collected using four-decade logarithmic amplification. The data was retrieved in list mode files and then analyzed. P selectin was expressed as percent positive cells. Other antigens were expressed as log mean fluorescence intensity.
For flow cytometry (TRAP-stimulated) all of the above flow cytometry experiments were identically repeated utilizing prestimulation with 10 μmol/L TRAP for 5 minutes at 37° C. To determine statistics, a Paired Sign Test was used to define significance of differences between vehicle and E5555-treated groups. The Mann-Whitney U test was used to analyze nonparametric data. Normally distributed data were expressed as mean±standard error (m±SE), and skewed data as median (range). All P-values were two sided. All analysis was performed using the SPSS v9.0 program (SPSS Inc., Chicago, Ill.).

Compound: Br.CCOc1cc2c(c(F)c1OCC)C(=N)N(CC(=O)c1cc(N3CCOCC3)c(OC)c(C(C)(C)C)c1)C2 [E5555, 1-(3-tert-butyl-4-methoxy-5-morpholinophenyl)-2-(5,6-diethoxy-7-fluoro-1-imino-1,3-dihydro-2H-isoindol-2-yl)ethanone hydrobromide]
- TRAP-induced aggregation, effect in words (platelets; ASA-treated patients with coronary artery disease): fully inhibiting
- TRAP-induced aggregation, effect in words (platelets; CAD patients treated with ASA+clopidogrel): profound blockade
- Platelet Aggregation (%), TRAP 10 μM (platelets; E5555 20 ng/ml, CAD patients treated with ASA + clopidogrel): 2.2 ± 1.6 %
- Platelet Aggregation (%), TRAP 10 μM (platelets; E5555 20 ng/ml, CAD patients treated with ASA): 2.7 ± 1.4 %
- Platelet Aggregation (%), TRAP 10 μM (platelets; E5555 20 ng/ml, healthy volunteers): 2.1 ± 1.2 %
- Platelet Aggregation (%), TRAP 10 μM (platelets; E5555 50 ng/ml, CAD patients treated with ASA + clopidogrel): 1.8 ± 1.0 %
- Platelet Aggregation (%), TRAP 10 μM (platelets; E5555 50 ng/ml, CAD patients treated with ASA): 3.3 ± 1.8 %
- Platelet Aggregation (%), TRAP 10 μM (platelets; E5555 50 ng/ml, healthy volunteers): 1.3 ± 1.2 %
- Platelet Aggregation (%), TRAP 10 μM (platelets; E5555 100 ng/ml, CAD patients treated with ASA + clopidogrel): 2.7 ± 2.2 %
- Platelet Aggregation (%), TRAP 10 μM (platelets; E5555 100 ng/ml, CAD patients treated with ASA): 2.9 ± 2.0 %
- Platelet Aggregation (%), TRAP 10 μM (platelets; E5555 100 ng/ml, healthy volunteers): 2.7 ± 1.8 %
- TRAP-induced aggregation, effect in words (platelets; healthy volunteers, E5555 20, 50, and 100 ng/ml): inhibited completely
- TRAP-induced aggregation, effect in words (platelets; overall summary of the study): inhibited almost completely
- Thrombospondin-Receptor (CD36), Mean Fluorescence Intensity ([1]; E5555 20 ng/ml, Patients (ASA + C)): 6 ± 1 MFI
- Thrombospondin-Receptor (CD36), Mean Fluorescence Intensity ([1]; E5555 20 ng/ml, Patients (ASA)): 6 ± 2 MFI
- Thrombospondin-Receptor (CD36), Mean Fluorescence Intensity ([1]; E5555 20 ng/ml, Volunteers): 9 ± 1 MFI
- Thrombospondin-Receptor (CD36), Mean Fluorescence Intensity ([1]; E5555 50 ng/ml, Patients (ASA + C)): 5 ± 1 MFI
- Thrombospondin-Receptor (CD36), Mean Fluorescence Intensity ([1]; E5555 50 ng/ml, Patients (ASA)): 7 ± 1 MFI
- Thrombospondin-Receptor (CD36), Mean Fluorescence Intensity ([1]; E5555 50 ng/ml, Volunteers): 9 ± 2 MFI
- Thrombospondin-Receptor (CD36), Mean Fluorescence Intensity ([1]; E5555 100 ng/ml, Patients (ASA + C)): 6 ± 2 MFI
- Thrombospondin-Receptor (CD36), Mean Fluorescence Intensity ([1]; E5555 100 ng/ml, Patients (ASA)): 7 ± 2 MFI
- Thrombospondin-Receptor (CD36), Mean Fluorescence Intensity ([1]; E5555 100 ng/ml, Volunteers): 9 ± 1 MFI
